In general, IC50 refers to the concentration that gives 50% inhibition.

Data set [1] in a line: Cytotoxicity against HEK293T cells cotransfected with pCMV-Script-hFXR/pGL4.11-hSHP-Luciferase incubated for 24 hrs in presence of GW4064 by celltiter-blue cell viability assay. The settings on record: human. Format: toxicity, cell-based, HEK-293T. For orientation: Alamar Blue is a resazurin reagent that responds to reducing activity.
Another data set addresses T1, Bile acid receptor (Homo sapiens, UniProt Q96RI1).
T1 sequence (Q96RI1 whole entry): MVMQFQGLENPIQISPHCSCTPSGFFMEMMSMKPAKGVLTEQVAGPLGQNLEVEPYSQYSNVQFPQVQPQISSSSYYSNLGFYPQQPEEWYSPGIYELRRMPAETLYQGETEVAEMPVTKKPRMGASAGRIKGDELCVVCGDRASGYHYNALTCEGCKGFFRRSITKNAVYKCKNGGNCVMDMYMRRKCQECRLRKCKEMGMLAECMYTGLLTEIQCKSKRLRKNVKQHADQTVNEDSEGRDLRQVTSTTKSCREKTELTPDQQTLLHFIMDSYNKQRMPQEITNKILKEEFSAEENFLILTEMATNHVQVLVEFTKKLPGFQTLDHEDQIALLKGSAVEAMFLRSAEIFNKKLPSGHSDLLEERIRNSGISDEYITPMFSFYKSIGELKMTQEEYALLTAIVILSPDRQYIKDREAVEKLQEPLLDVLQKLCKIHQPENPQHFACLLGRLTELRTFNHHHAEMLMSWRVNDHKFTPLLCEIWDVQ
Nature of the data set: Antagonist activity at FXR (unknown origin) expressed in HEK293T cells cotransfected with pCMV-Script-hFXR/pGL4.11-hSHP-Luciferase incubated for 24 hrs in presence of GW4064 by Steady-glo luciferase assay. Format: cell-based.

For the molecule `CCCC(=O)O[C@@H]1CC[C@]2(C)[C@H]3CC[C@@H]4[C@H]5[C@H]([C@@H](C)C(=O)O)CC[C@]5(C(=O)NCC(=O)O)CC[C@@]4(C)[C@]3(C)CC[C@H]2C1(C)C`, the IC50 at 24 h in data set [1] worked out at 97.2 µM. Besides, the IC50 on Bile acid receptor is 25.7 µM.
In the same order, the values of `CCCC(=O)O[C@@H]1CC[C@]2(C)[C@H]3CC[C@@H]4[C@H]5[C@H](C(C)C)CC[C@]5(NC(=O)NCC(=O)O)CC[C@@]4(C)[C@]3(C)CC[C@H]2C1(C)C` are 1.3 µM and 1.1 µM.
Take `CCC(=O)O[C@@H]1CC[C@]2(C)[C@H]3CC[C@@H]4[C@H]5[C@H](C(C)C)CC[C@]5(C(=O)NCC(=O)O)CC[C@@]4(C)[C@]3(C)CC[C@H]2C1(C)C`: the IC50 at 24 h in data set [1] is > 100 µM. On Bile acid receptor, the 50% inhibitory concentration (IC50) was determined as 9.1 µM.
For `CCCC(=O)O[C@H]1CC[C@]2(C)[C@H]3CC[C@@H]4[C@H]5[C@H](C(C)C)CC[C@]5(C(=O)NCC(=O)O)CC[C@@]4(C)[C@]3(C)CC[C@H]2C1(C)C`, in that order: > 100 µM and 13 µM.
In the same order, the values of `CCCC(=O)O[C@@H]1CC[C@]2(C)[C@H]3CC[C@@H]4[C@H]5[C@H]([C@@H](C)CO)CC[C@]5(C(=O)NCC(=O)O)CC[C@@]4(C)[C@]3(C)CC[C@H]2C1(C)C` are > 100 µM and 14.1 µM.
As to `CCCCC(=O)O[C@@H]1CC[C@]2(C)[C@H]3CC[C@@H]4[C@H]5[C@H](C(C)C)CC[C@]5(C(=O)NCC(=O)O)CC[C@@]4(C)[C@]3(C)CC[C@H]2C1(C)C`, the IC50 at 24 h in data set [1] was > 100 µM. Also, the IC50 at Bile acid receptor stood at 3 µM.
Take `CCCC(=O)O[C@@H]1CC[C@]2(C)[C@H]3CC[C@@H]4[C@H]5[C@H](C(C)C)CC[C@]5(C(=O)N[C@@H](C)C(=O)O)CC[C@@]4(C)[C@]3(C)CC[C@H]2C1(C)C`: in data set [1], the IC50 at 24 h is 37.7 µM.
Consider `CC(C)[C@@H]1CC[C@]2(C(=O)NCC(=O)O)CC[C@]3(C)[C@H](CC[C@@H]4[C@@]5(C)CC[C@@H](OC(=O)C6CCC6)C(C)(C)[C@@H]5CC[C@]43C)[C@@H]12`, for which the IC50 at 24 h in data set [1] is > 100 µM. For the same molecule, the IC50 on Bile acid receptor was determined as 4.1 µM.
For `CCCC(=O)O[C@@H]1CC[C@]2(C)[C@H]3CC[C@@H]4[C@H]5[C@H](C(C)C)CC[C@]5(C(=O)NCCC(=O)O)CC[C@@]4(C)[C@]3(C)CC[C@H]2C1(C)C`, in that order: > 100 µM and 9.9 µM.
On to `CC(C)[C@@H]1CC[C@]2(C(=O)NCC(=O)O)CC[C@]3(C)[C@H](CC[C@@H]4[C@@]5(C)CC[C@@H](OC(=O)c6ccccc6)C(C)(C)[C@@H]5CC[C@]43C)[C@@H]12`, for which, in data set [1], the IC50 at 24 h is 35 µM. Besides, the 50% inhibitory concentration (IC50) on Bile acid receptor turned out to be 1.1 µM.
For `CCCC(=O)O[C@@H]1CC[C@]2(C)[C@H]3CC[C@@H]4[C@H]5[C@H](C(C)=O)CC[C@]5(C(=O)NCC(=O)O)CC[C@@]4(C)[C@]3(C)CC[C@H]2C1(C)C`, in that order: 44.3 µM and 10 µM.
In the case of `CC(C)[C@@H]1CC[C@]2(C(=O)NCC(=O)O)CC[C@]3(C)[C@H](CC[C@@H]4[C@@]5(C)CC[C@@H](OC(=O)C6CC6)C(C)(C)[C@@H]5CC[C@]43C)[C@@H]12`, the IC50 at 24 h in data set [1] was > 100 µM. Besides, the IC50 on Bile acid receptor came to 10 µM.
As to `CCCC(=O)O[C@@H]1CC[C@]2(C)[C@H]3CC[C@@H]4[C@H]5[C@H](C(=O)CO)CC[C@]5(C(=O)NCC(=O)O)CC[C@@]4(C)[C@]3(C)CC[C@H]2C1(C)C`, in data set [1], the IC50 at 24 h came to 25.3 µM.
Still for that read-out and setting: to `CCNS(=O)(=O)O[C@@H]1CC[C@]2(C)[C@H]3CC[C@@H]4[C@H]5[C@H](C(C)C)CC[C@]5(C(=O)NCC(=O)O)CC[C@@]4(C)[C@]3(C)CC[C@H]2C1(C)C` belongs > 100 µM.
`CC(C)[C@@H]1CC[C@]2(C(=O)O)CC[C@@H]3[C@H](CC[C@H]4[C@@]3(C)CC[C@H]3C(C)(C)[C@H](O)CC[C@]43C)[C@@H]12`: the half-inhibitory concentration (IC50) at 24 h in data set [1] stood at 61.7 µM. In addition, the half-maximal inhibitory concentration (IC50) at Bile acid receptor came to 7.9 µM.
For `CCCC(=O)O[C@@H]1CC[C@]2(C)[C@H]3CC[C@@H]4[C@H]5[C@H](C(C)C)CC[C@]5(C(=O)NCC(=O)NS(C)(=O)=O)CC[C@@]4(C)[C@]3(C)CC[C@H]2C1(C)C`, in that order: > 100 µM and 12.1 µM.
Regarding `CCNC(=O)O[C@@H]1CC[C@]2(C)[C@H]3CC[C@@H]4[C@H]5[C@H](C(C)C)CC[C@]5(C(=O)NCC(=O)O)CC[C@@]4(C)[C@]3(C)CC[C@H]2C1(C)C`, in data set [1], the half-inhibitory concentration (IC50) at 24 h worked out at 56 µM. Besides, at Bile acid receptor, the half-maximal inhibitory concentration (IC50) stood at 3.4 µM.
For the molecule `CC(C)C(=O)O[C@@H]1CC[C@]2(C)[C@H]3CC[C@@H]4[C@H]5[C@H](C(C)C)CC[C@]5(C(=O)NCC(=O)O)CC[C@@]4(C)[C@]3(C)CC[C@H]2C1(C)C`, the IC50 at 24 h in data set [1] is > 100 µM. For the same molecule, the 50% inhibitory concentration (IC50) on Bile acid receptor amounted to 4.6 µM.
For the molecule `CC(C)[C@@H]1CC[C@]2(C(=O)NCC(=O)O)CC[C@]3(C)[C@H](CC[C@@H]4[C@@]5(C)CC[C@@H](OC(=O)c6ccc(F)cc6)C(C)(C)[C@@H]5CC[C@]43C)[C@@H]12`, the IC50 at 24 h in data set [1] came out at 55.7 µM.
Regarding `CCCC(=O)O[C@@H]1CC[C@]2(C)[C@H]3CC[C@@H]4[C@H]5[C@H](C(C)C)CC[C@]5(C(=O)OCC(=O)O)CC[C@@]4(C)[C@]3(C)CC[C@H]2C1(C)C`, the IC50 at 24 h in data set [1] was 29.2 µM. In addition, at Bile acid receptor, the IC50 amounted to 1.9 µM.
For `CCOC(=O)O[C@@H]1CC[C@]2(C)[C@H]3CC[C@@H]4[C@H]5[C@H](C(C)C)CC[C@]5(C(=O)NCC(=O)O)CC[C@@]4(C)[C@]3(C)CC[C@H]2C1(C)C`, in that order: > 100 µM and 7.3 µM.
For `CCCS(=O)(=O)O[C@@H]1CC[C@]2(C)[C@H]3CC[C@@H]4[C@H]5[C@H](C(C)C)CC[C@]5(C(=O)NCC(=O)O)CC[C@@]4(C)[C@]3(C)CC[C@H]2C1(C)C`, in that order: > 100 µM and 14 µM.
In the same order, the values of `COc1ccc(C(=O)O[C@@H]2CC[C@]3(C)[C@H]4CC[C@@H]5[C@H]6[C@H](C(C)C)CC[C@]6(C(=O)NCC(=O)O)CC[C@@]5(C)[C@]4(C)CC[C@H]3C2(C)C)cc1` are > 100 µM and 4.1 µM.
For `CCCC(=O)O[C@@H]1CC[C@]2(C)[C@H]3CC[C@@H]4[C@H]5[C@H](C(C)C)CC[C@]5(C(=O)NCCS(=O)(=O)O)CC[C@@]4(C)[C@]3(C)CC[C@H]2C1(C)C`, the half-inhibitory concentration (IC50) at 24 h in data set [1] is > 100 µM. Moreover, the 50% inhibitory concentration (IC50) at Bile acid receptor was > 100 µM.
As for `CC(C)[C@@H]1CC[C@]2(C(=O)NCC(=O)O)CC[C@]3(C)[C@H](CC[C@@H]4[C@@]5(C)CC[C@@H](OC(=O)c6ccco6)C(C)(C)[C@@H]5CC[C@]43C)[C@@H]12`, the IC50 at 24 h in data set [1] was > 100 µM. For the same molecule, the 50% inhibitory concentration (IC50) at Bile acid receptor is > 100 µM.
With `CCCC(=O)O[C@@H]1CC[C@]2(C)[C@H]3CC[C@@H]4[C@H]5[C@H](C(C)C)CC[C@]5(NC(=O)OCC(=O)O)CC[C@@]4(C)[C@]3(C)CC[C@H]2C1(C)C`, the IC50 at 24 h in data set [1] turned out to be 1 µM. Moreover, on Bile acid receptor, the IC50 amounted to 0.9 µM.
Regarding `CC(C)[C@@H]1CC[C@]2(C(=O)NCC(=O)O)CC[C@]3(C)[C@H](CC[C@@H]4[C@@]5(C)CC[C@@H](OC(=O)C6CCCC6)C(C)(C)[C@@H]5CC[C@]43C)[C@@H]12`, in data set [1], the IC50 at 24 h amounted to 2 µM. Moreover, the IC50 on Bile acid receptor was found to be 1.6 µM.

The values above are taken from ChEMBL document CHEMBL5096210, “Discovery of Betulinic Acid Derivatives as Potent Intestinal Farnesoid X Receptor Antagonists to Ameliorate Nonalcoholic Steatohepatitis” (J Med Chem, 2022).
